{"source": "patent US12667546B2", "about": "“Methods for manipulating cell state transitions in cancer” (AGENCY FOR SCIENCE, TECHNOLOGY AND RESEARCH, priority 2018, dated 2026)", "key": {"[1]": {"tested_on": "NAMEC8-Ras", "assay": "Tumor formation of pre-treated NAMEC8-Ras injected subcutaneously", "format": "in vivo, NSG mice", "details": "pre-treated cells, 11 weeks"}, "[2]": {"tested_on": "NAMEC8", "assay": "Expression of EMT and lineage markers (qRT-PCR, immunoblot, immunofluorescence) in NAMEC8", "format": "cell-based, human", "details": "for expression of EMT and basal/luminal markers: transcript and protein", "description": "(§1) Cells were rinsed twice in ice-cold PBS. Total RNA was extracted using Trizol (Invitrogen) and column-purified with RNeasy kits (Qiagen). cDNA synthesis was performed with 500 ng of total RNA at 37° C. for 2 h using the SuperScript III First-Strand Synthesis System (Thermo Fisher Scientific), and subsequently diluted 5-fold. mRNA levels were measured with gene-specific primers listed below using the ABI Prism 7900HT Sequence Detection System 2.2 (Applied Biosystems). Results were normalized to GAPDH and analyzed using SDS 2.2 software.\n(§2) Cells were harvested and scraped from culture dishes in ice-cold PBS. They were then centrifuged at 12000 rpm for 5 min at 4° C. The pellets were then snap frozen in liquid nitrogen or lysed in ice-cold RIPA lysis buffer (Thermo Scientific) and left on ice for 30 min. Subsequently, the lysates were centrifuged at 12000 rpm for 10 min at 4° C. The supernatants were then aspirated and placed in fresh tubes. Protein concentrations were determined using Coomaisse Blue. 50-80 μg total protein was mixed with NuPAGE™ LDS sample buffer and heated at 70° C. for 10 min. Samples were loaded into NuPAGE™ 4-12% Bis-Tris gels (precast polyacrylamide gel; Invitrogen™). Gel electrophoresis was done at 200V for 1.5 h and then blotted onto nitrocellulose membranes (Trans-Blot Turbo™ transfer pack; Bio-Rad). The membranes were blocked with 5% skimmed milk in Tris-buffered saline (TBS; 1st BASE) with 0.1% Tween-20 (Santa Cruz), and then incubated with primary antibodies overnight at 4° C. Thereafter, the membranes were incubated with a horseradish peroxidase (HRP)-conjugated secondary antibody at room temperature for one hour. Finally, the immunoreactive proteins were visualized by using an enhanced chemiluminescent (ECL) reagent (Thermo Scientific, 34075) with the Chemidoc™ Imager (Bio-Rad, 17001401).\nCell cultures were fixed in 4% paraformaldehyde and permeabilized with 0.25% Triton X-100, followed by blocking with 1% bovine serum albumin in PBST. Cells were incubated in specific primary antibodies, followed by the appropriate secondary antibodies conjugated with Alexa Fluor-488 or -594 (Molecular Probes). Cell nuclei were then stained with DAPI and then viewed and imaged with an Axio Observer D1 epifluorescence microscope with a built-in AxioCamMR3 camera (Zeiss), using the optimal filters and 100-200× magnifications."}, "[3]": {"tested_on": "NAMEC8", "assay": "Cell morphology of treated NAMEC8", "format": "cell-based, human", "details": "bexarotene, TTNPB, SGC-CBP30, UNC0642, A-485 1 μM, LLY-283, GSK591 20 nM, C-IN-1 500 nM", "description": "Human mammary epithelial cell lines (HMLE) were generated as described and immortalized using retroviral vectors to express the catalytic subunit of the human telomerase enzyme, hTERT and the SV-40 Large T antigen. NAMEC8 was generated as described. Briefly, HMLE cells were grown to 50% confluency, followed by differential trypsinization for 1 minute with 0.05% trypsin. Detached cells were carefully collected and re-plated at approximately 200 cells per well of a 24-well plate. Upon expansion, wells were screened for populations that were morphologically mesenchymal and can be stably propagated. Clonal and non-clonal NAMEC cell lines were generated. NAMEC8 is a non-clonal line derived from at least 200 mesenchymal cells. HMLE cells and NAMECs were maintained in MEGM (Lonza)."}, "[4]": {"tested_on": "NAMEC8", "assay": "Flow cytometry of CD44 and CD24, NAMEC8", "format": "cell-based, human", "description": "(§3) Cells were harvested as per FACS and resuspended in 100 μl of solution containing CD24-PE and CD44-APC (BD-Biosciences) antibodies diluted in 2% FBS in PBS (1:40 dilution). Cells were stained for 45 min with vortexing every 10 min to ensure even staining. After antibody incubation, cells were washed once and resuspended in 300 μl 2% FBS in PBS. Cells were then filtered through a 40 μm strainer and analyzed on BD LSR Fortessa X-20 Cell Analyzer."}, "[5]": {"tested_on": "metastatic TNBC", "details": "cited from earlier work"}, "[6]": {"tested_on": "NAMEC8", "assay": "Mammosphere assay, NAMEC8", "format": "cell-based, human", "details": "NAMEC8, pre-treated cells", "description": "(§4) For mammosphere culture, cells were seeded onto 96-well ultralow-adherence plates at 700 cells/well in Mammocult medium (Stem Cell Technologies) supplemented with 4 μg/ml heparin, 0.5 μg/ml hydrocortisone and 1% methylcellulose. Spheres (>100 μm) were counted at 7-10 days later."}, "[7]": {"tested_on": "SUM159", "assay": "Expression of EMT and lineage markers in SUM159", "format": "cell-based, human", "description": "as §1\nCells were harvested and scraped from culture dishes in ice-cold PBS. They were then centrifuged at 12000 rpm for 5 min at 4° C. The pellets were then snap frozen in liquid nitrogen or lysed in ice-cold RIPA lysis buffer (Thermo Scientific) and left on ice for 30 min. Subsequently, the lysates were centrifuged at 12000 rpm for 10 min at 4° C. The supernatants were then aspirated and placed in fresh tubes. Protein concentrations were determined using Coomaisse Blue. 50-80 μg total protein was mixed with NuPAGE™ LDS sample buffer and heated at 70° C. for 10 min. Samples were loaded into NuPAGE™ 4-12% Bis-Tris gels (precast polyacrylamide gel; Invitrogen™). Gel electrophoresis was done at 200V for 1.5 h and then blotted onto nitrocellulose membranes (Trans-Blot Turbo™ transfer pack; Bio-Rad). […]"}, "[8]": {"tested_on": "H3K14ac, H3K18ac and H3K27ac in NAMEC8", "assay": "Immunoblot of histone acetylation marks", "format": "cell-based, human", "description": "as §2"}, "[9]": {"tested_on": "SUM159", "assay": "Flow cytometry of CD44 and CD24, SUM159", "format": "cell-based, human", "description": "as §3"}, "[10]": {"tested_on": "SUM159", "assay": "Mammosphere assay, SUM159", "format": "cell-based, human", "description": "as §4"}, "[11]": {"tested_on": "MCF7-Slug+Sox9 tumors", "assay": "Orthotopic MCF7-Slug+Sox9 EMT-induced metastasis model", "format": "in vivo, NSG mice", "details": "etomoxir 20 mg/kg per day i.p. plus doxycycline", "description": "Orthotopic tumor transplantations of MCF7-Slug+Sox9 cells labeled with the tdTomato fluorescent protein were carried out as described previously. Briefly, 1×10^6 cells were resuspended in 30 μl of media containing 50% matrigel and injected into mammary fat pads of NSG mice. Mice were randomly divided into 3 groups (Control, DOX and Etomoxir+DOX). Mice were administered vehicle control (0.9% w/v NaCl) or etomoxir (20 mg/kg) via i.p. injections daily for 3 weeks. Doxycycline was then administered through drinking water for 2 weeks. Mice were sacrificed 10 weeks after doxycycline treatment was stopped and analyzed for lung metastases under a fluorescence microscope. The tumor sections were fixed overnight in 4% paraformaldehyde, immersed in 70% ethanol, and sent to the Advanced Molecular Pathlogy Lab, IMCB for paraffinization. For IF staining, slides were deparaffinized and rehydrated in PBS. The tissues were surrounded with a hydrophobic barrier using a barrier pen and blocked with the blocking buffer (1% bovine serum albumin; BSA, 1% horse serum and 0.2% Triton X-100 in PBS) for 1 hour. They were then washed with PBS and incubated in specific primary antibodies at 4° C. overnight. […] The fluorescence image analysis and the fluorescence overlay image were obtained with the Axio Vision Rel. […]"}, "[12]": {"tested_on": "A549", "assay": "TGFβ-induced EMT in lung cancer cell line", "format": "cell-based, human", "description": "as §2"}, "[13]": {"tested_on": "SUM159", "assay": "Fatty acid β-oxidation assay (rate of FAO)", "format": "cell-based, human", "details": "etomoxir alone or together with bexarotene", "description": "FAO rate was measured using the mitochondrial stress test on the XF96 analyzer (Seahorse Bioscience) according to manufacturer's instructions. Cells were seeded in 96well XF96 cell culture plates at a density of 9000 cells/well in complete media. Cells were then incubated with XF modified DMEM assay medium (Seahorse Bioscience) supplemented with 1 mM glutamine, 0.5 mM glucose, 1% FBS and 0.5 mM carnitine the next day for 18 h. On the day of the assay, cells were incubated with FAO assay medium (KHB: 111 mM NaCl, 4.7 mM KCl, 1.25 mM CaCl2), 2 mM MgSO4, 1.2 mM NaH2 PO4 supplemented with 2.5 mM glucose, 0.5 mM carnitine, 5 mM HEPES, adjusted to pH7.4) 45 min prior to the assay in a non-CO2 incubator. Seahorse XF Cell Mito Stress Test compounds (2 μM oligomycin, 2 μM FCCP, 2 μM rotenone). For inhibition of FAO, etomoxir (40 μM) was added 15 min prior to the assay. Just prior to starting the assay, XF Palmitate-BSA FAO substrate or BSA was added to the cells. Plate was then put into the XF96 analyzer and the XF Cell Mito Stress Test was run using the recommended protocol. Rate of FAO was calculated by the difference in maximal respiration when Palmitate-BSA FAO substrate was supplemented relative to BSA control."}, "[14]": {"tested_on": "MCF7-Slug+Sox9", "assay": "Doxycycline-induced EMT in MCF7-Slug+Sox9 cells", "format": "cell-based, human", "description": "(§5) HMLE-Twist-ER cells were generated as described. For EMT-induction, 100 nM of 4-hydroxytamoxifen in ethanol was added to the culture medium every 48 h to induce Twist expression. Control cells were treated with ethanol. MCF7-Slug+Sox9 cells were generated as previously described. HMLE-Zeb1 cells were generated by infection with FUW-Zeb1 and rTTA. Doxycycline was added to the culture medium every 48 h to induce Zeb1 expression. To generate tumorigenic cells from NAMEC8, cells were infected with pWZL-Blast-Ras. MCF7, MCF7-Ras, SUM159 were maintained as previously described. All cell cultures were maintained at 37° C. with 5% CO2.\nas §1\n(§6) Cells were harvested and scraped from culture dishes in ice-cold PBS. They were then centrifuged at 12000 rpm for 5 min at 4° C. […] Protein concentrations were determined using Coomaisse Blue. […]"}, "[15]": {"details": "in vivo; cited from earlier work"}, "[16]": {"tested_on": "HMLE-Twist ER", "assay": "4-OHT-induced EMT in HMLE-Twist ER cells", "format": "cell-based, human", "description": "as §5, §1, §6"}}, "note": "Entries after “also recorded” stand apart in the source; their conditions may differ. Read-outs that look alike come from different tables or passages of the source."}
{"molecule": "CNC(=O)Nc1ccc2c(c1)CC[C@@]21OC(=O)N(CC(=O)N(Cc2ccc(F)cc2)[C@@H](C)C(F)(F)F)C1=O", "note": "[A-485]", "values": [{"measurement": "tumor formation / tumor size", "setting": "[1]", "value": "Tumor formation was still observed"}, {"measurement": "expression of EMT and basal/luminal markers", "setting": "[2]", "value": "upregulation of E-cadherin protein expression, with slight decrease in the mesenchymal markers"}, {"measurement": "cell morphology", "setting": "[3]", "value": "tight clusters of epithelial islands were observed; also recorded: Epithelial-like morphology was observed"}, {"measurement": "CD44/CD24 surface expression", "setting": "[4]", "value": "obvious increase in CD44 expression; also recorded: higher CD44 expression"}]}
{"molecule": "Pembrolizumab: immune checkpoint monotherapy in Keynote 012 and Keynote 086 studies", "values": [{"measurement": "response rate", "setting": "[5]; Keynote 012, phase 1, monotherapy", "value": 18, "unit": "%"}, {"measurement": "response rate", "setting": "[5]; Keynote 086, phase 2, monotherapy", "value": 5, "unit": "%"}]}
{"molecule": "COc1ccc(CCc2nc3cc(-c4c(C)noc4C)ccc3n2C[C@H](C)N2CCOCC2)cc1Cl", "note": "[SGC-CBP30]", "values": [{"measurement": "tumor formation / tumor size", "setting": "[1]", "value": "significantly smaller tumors after 11 weeks; also recorded: significantly reduced tumor formation in mice"}, {"measurement": "mammosphere formation", "setting": "[6]", "value": "significantly reduce the size and number of spheres formed"}, {"measurement": "expression of EMT and lineage markers / epithelial features", "setting": "[7]", "value": "increasing epithelial features and decreasing stemness in SUM159"}, {"measurement": "histone acetylation marks", "setting": "[8]", "value": "all the acetylation marks were decreased but to a lesser extent compared to A-485 treatment"}, {"measurement": "expression of EMT and basal/luminal markers", "setting": "[2]", "value": "significantly increased epithelial marker E-cadherin expression, as well as downregulated several mesenchymal markers, fibronectin, ZEB1 and SLUG; also recorded: most drastic change as compared to the other compounds"}, {"measurement": "CD44/CD24 surface expression", "setting": "[9]", "value": "slight decrease in CD44 expression, with a population of cells gaining the expression of CD24; also recorded: decreased CD44 expression and higher CD24 expression"}, {"measurement": "mammosphere formation", "setting": "[10]", "value": "significant reduction in spheres formation and spheres size"}, {"measurement": "cell morphology", "setting": "[3]", "value": "obvious change in cell morphology from scattered, spindle- and fibroblastic-like cells, to tight clusters of epithelial islands; also recorded: resulted in epithelial-like morphology"}, {"measurement": "CD44/CD24 surface expression", "setting": "[4]", "value": "population of cells with lower CD44 expression was observed; also recorded: Population of cells with decreased CD44 expression was observed"}]}
{"molecule": "CCOC(=O)[C@@]1(CCCCCCOc2ccc(Cl)cc2)CO1", "note": "[etomoxir]", "values": [{"measurement": "EMT markers in primary tumors (E-cadherin, Vimentin)", "setting": "[11]", "value": "retention of the epithelial features"}, {"measurement": "TGFβ-induced EMT", "setting": "[12]", "value": "blocking TGFβ-induced EMT"}, {"measurement": "MET phenotype: induction and durability after drug withdrawal", "setting": "[2]; drugs removed for at least seven days", "value": "unable to do so"}, {"measurement": "FAO activity", "setting": "[13]", "value": "completely inhibited FAO activity"}, {"measurement": "Slug+Sox9-induced EMT", "setting": "[14]", "value": "blocked Slug+Sox9-induced EMT"}, {"measurement": "clinical outcome / toxicity", "setting": "[15]", "value": "failed clinical trials due to liver toxicity"}, {"measurement": "4-OHT-induced EMT", "setting": "[16]", "value": "dramatically block this transition"}]}
